Test results published in US11771678B2 (NATIONAL UNIVERSITY CORPORATION KUMAMOTO UNIVERSITY, priority 2016, dated 2023).

Legend:
[1] = tested on: methylmalonic acidemia-derived NPCs; assay: cAMP production ability test with Forskolin (intracellular cAMP ELISA); type: cell-based, human; conditions: Forskolin 10 μmol/l, after 24 hours; compared with NPCs from normal iPS cells
Procedure: (3) On the occasion of performing measurement, a pretreatment of cells was carried out. Cells were detached from the culture plate, the number of cells was counted, and centrifugation was performed. After the centrifugation, the supernatant was suctioned, and the residue was suspended in a 0.1 M HCl solution at a concentration of 1×10^6/cells/mL. In the case of cells with a known cell count, a series of these operations was omitted, and 0.1 M HCl was introduced directly onto the culture plate while the cells were adhered. After suspending, the suspension was incubated at room temperature for 10 minutes and then was centrifuged at 600 g/5 minutes. […] (4) For the measurement, measurement was carried out through a series of the following processes. • A neutralizing liquid (Neutralizing reagent) was introduced in an amount of 50 μL into wells other than total activity (TA) and blanks. • Subsequently, 100 μL of a standard diluent was added to non-specific binding (NBS) and BO (0 pmol/mL standard). Furthermore, 50 μL of a standard diluent was added to the wells of NBS. […] The light absorbance at 405 nm was measured. […]

[2] = tested on: lethal methylmalonic acid seizure model; assay: In vivo test using survival rate as index, lethal methylmalonic acid seizure model; parameters: species or system C57BL/6J mice; conditions: db-cAMP 10 μg/kg/dose subcutaneous
Procedure: An evaluation of administration of candidate drugs was carried out using the survival rate as an index, using a lethal methylmalonic acid seizure model.
1. A […] methylmalonic acid solution was intraperitoneally administered to eight-week old C57BL/6J mice at a dose of 20 ml/kg, and thus a lethal methylmalonic acid seizure model was produced.
2. After one day, after two days, and after three days from the administration of methylmalonic acid, subcutaneous administration of db-cAMP (10 μg/kg/dose) as a candidate drug was performed, and a comparison of the survival rates in an administered group and a non-administered group was carried out.

[3] = tested on: Adenylate cyclase; assay: Adenylate cyclase inhibition by methylmalonic acid: cAMP concentration in B42NPCs; type: cell-based, human; conditions: methylmalonic acid 50 μM or 100 μM in culture fluid, 24 hours
Procedure: cAMP is produced from ATP by Adenylate cyclase. From this point of view, an investigation was conducted on whether methylmalonic acid would inhibit Adenylate cyclase.

[4] = tested on: Adenylate cyclase, CREB, phosphorylated CREB; assay: Protein expression analysis by Western Blotting in B42NPCs; type: cell-based, human; conditions: presence or absence of methylmalonic acid
Procedure: 2. Meanwhile, the protein expression analysis shown in FIG. 6 was carried out based on the existing Western Blotting method.

## C=C[C@@]1(C)CC(=O)[C@]2(O)[C@@]3(C)[C@@H](O)CCC(C)(C)[C@@H]3[C@H](O)[C@H](OC(C)=O)[C@@]2(C)O1 [Forskolin, (3R,4aR,5S,6S,6aS,10S,10aR,10bS)-6,10,10b-trihydroxy-3,4a,7,7,10a-pentamethyl-1-oxo-3-vinyldodecahydro-1H-benzo[f]chromen-5-yl acetate]
[1]
  reactivity to Forskolin (intracellular cAMP concentration): decrease in reactivity to Forskolin was recognized

## CCCC(=O)Nc1ncnc2c1ncn2[C@@H]1O[C@@H]2COP(=O)(O)O[C@H]2[C@H]1OC(=O)CCC [db-cAMP, dibutyl-cAMP]
[2]
  vital prognosis based on seizure originating from methylmalonic acidemia: markedly ameliorated
[2]; non-administered group 14.7%, p<0.001
  survival rate after two days: 75.0%
[2]; non-administered group 35.3%
  survival rate one day after the administration of methylmalonic acid: 85.0%

## CC(C(=O)O)C(=O)O [methylmalonic acid]
[3]
  cAMP production power: as the methylmalonic acid concentration in the culture fluid is higher, the cAMP production power is decreased
[4]
  total amounts of protein expression of Adenylate cyclase and CREB: constant
